Source: patent US8420820B2, “Pyrrolopyridinylpyrimidin-2-ylamine derivatives” (Merck Patent GmbH, priority 2008, dated 2013)

Columns and labels:
[1] = molecular target: T1, PDK1 (Homo sapiens, UniProt O15530); assay: Test for the inhibition of PDK1 (flashplate, 33P-ATP); format: biochemical; details: His6-PDK1 3.4 nM, 4 μM ATP, 30° C., 60 min
T1 construct: His6 (N)
In short: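 His6-PDK1(1-50) at 3.4 nM with biotinylated peptide substrate (400 nM) and 4 μM ATP plus 33P-ATP, 60 min at 30° C. Incorporated radioactivity counted; blank from 100 nM staurosporin subtracted. Activity given as % of no-compound control; IC50 from dilution series.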

[2] = system: A2780 (ovary); assay: Tumour cell proliferation/vitality assay (Alamar Blue); format: cell-based; details: Homo sapiens, 96 h, A2780 cells, 4 days of cultivation with test substance
Procedure: In the present experiment description, the inhibition of tumour cell proliferation/tumour cell vitality by active ingredients is described.
The cells are sown in a suitable cell density in microtitre plates (96-well format) and the test substances are added in the form of a concentration series. After four further days of cultivation in serum-containing medium, the tumour cell proliferation/tumour cell vitality can be determined by means of an Alamar Blue test system.
The cells are cultivated in medium. At intervals of several days, the cells are detached from the culture dishes with the aid of trypsin solution and sown in suitable dilution in fresh medium. The cells are cultivated at 37° Celsius and 10% CO2.
A defined number of cells (for example 2000 cells) per culture/well in a volume of 180 μl of culture medium are sown in microtitre plates (96 well cell-culture plates) using a multichannel pipette. The cells are subsequently cultivated in a CO2 incubator (37° C. and 10% CO2).
The test substances are dissolved, for example, in DMSO and subsequently employed in corresponding concentration (if desired in a dilution series) in the cell culture medium. The dilution steps can be adapted depending on the efficiency of the active ingredients and the desired spread of the concentrations. Cell culture medium is added to the test substances in corresponding concentrations. The addition of the test substances to the cells can take place on the same day as the sowing of the cells. To this end, in each case 20 μl of substance solution from the predilution plate are added to the cultures/wells. The cells are cultivated for a further 4 days at 37° Celsius and 10% CO2.
In each case, 20 μl of Alamar Blue reagent are added per well, and the microtitre plates are incubated, for example, for a further seven hours in a CO2 incubator (at 37° C. and 10% CO2). The plates are measured in a reader with a fluorescence filter at a wavelength of 540 nm. The plates can be shaken gently immediately before the measurement.
The absorbance value of the medium control (no cells and test substances used) is subtracted from all other absorbance values. The controls (cells without test substance) are set equal to 100 percent, and all other absorbance values are set in relation thereto (for example in % of control):
IC50 values (50% inhibition) are determined with the aid of statistics programs, such as, for example, RS1.

[3] = system: PDK1 kinase activity in PC3 cells (phospho-T308-PKB); assay: Cellular testing of PDK1 kinase inhibitors in PC3 cells (Luminex, phospho-T308-PKB); format: cell-based; details: Homo sapiens, PC-3, 0.5 h, 30 min with test substance, serum-free, phospho-T308-PKB by Luminex, read-out: IC50 [PC3 P-PKB Thr308]
In short: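 Serum-starved PC3 cells treated 30 min with compound (7-point dilution); lysates captured on anti-total-PKB Luminex beads, with phospho-T308-PKB detected by antibody. Signals corrected by 10 μM staurosporine blank, expressed as percent of 0.3% DMSO control, giving IC50.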

T1 sequence (O15530 51-556): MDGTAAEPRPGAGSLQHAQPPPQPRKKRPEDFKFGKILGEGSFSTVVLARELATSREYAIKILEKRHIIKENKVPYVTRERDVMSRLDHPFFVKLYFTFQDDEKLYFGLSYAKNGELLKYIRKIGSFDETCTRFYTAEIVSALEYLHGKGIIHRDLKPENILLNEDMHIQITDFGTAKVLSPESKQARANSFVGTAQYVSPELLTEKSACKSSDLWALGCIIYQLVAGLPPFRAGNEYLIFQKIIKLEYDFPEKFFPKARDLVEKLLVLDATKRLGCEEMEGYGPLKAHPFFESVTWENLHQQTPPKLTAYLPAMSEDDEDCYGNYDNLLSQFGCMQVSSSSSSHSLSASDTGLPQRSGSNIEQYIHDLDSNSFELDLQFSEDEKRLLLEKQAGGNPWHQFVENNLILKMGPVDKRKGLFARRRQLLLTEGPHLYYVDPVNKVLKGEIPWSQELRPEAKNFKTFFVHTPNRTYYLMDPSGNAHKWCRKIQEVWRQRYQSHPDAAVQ

SMILES | IC50 [1] [nM] | IC50 [2] [nM] | IC50 [3] [nM]
CCc1cc(-c2c[nH]c3ncc(-c4cnn(C5CCNCC5)c4)cc23)nc(N)n1 [Compound A6, 4-ethyl-6-[5-(1-piperidin-4-yl-1H-pyrazol-4-yl)-1H-pyrrolo[2,3-b]pyridin-3-yl]pyrimidin-2-ylamine] | 10 to 1000 | 1000 to 10000 | 10000 to 20000
CCc1cc(-c2c[nH]c3ncc(-c4cnn(CC5CCCO5)c4)cc23)nc(N)n1 (stereo not drawn) [Compound A2, 4-ethyl-6-{5-[1-(tetrahydrofuran-2-ylmethyl)-1H-pyrazol-4-yl]-1H-pyrrolo[2,3-b]pyridin-3-yl}-pyrimidin-2-ylamine] | 10 to 1000 | 10 to 1000 | 10000 to 20000
CCc1cc(-c2c[nH]c3ncc(-c4cnn(CCNC)c4)cc23)nc(N)n1 [Compound A3, 4-ethyl-6-{5-[1-(2-methylaminoethyl)-1H-pyrazol-4-yl]-1H-pyrrolo[2,3-b]pyridin-3-yl}pyrimidin-2-yl] | 10 to 1000 | 10 to 1000 | 10000 to 20000
CCc1cc(-c2c[nH]c3ncc(-c4cnn(C5CCN(C)CC5)c4)cc23)nc(N)n1 [Compound A5, 4-ethyl-6-{5-[1-(1-methylpiperidin-4-yl)-1H-pyrazol-4-yl]-1H-pyrrolo[2,3-b]pyridin-3-yl}-pyrimidin-2-ylamine] | 10 to 1000 | 10 to 1000 | 1000 to 10000
CCc1cc(-c2c[nH]c3ncc(-c4cnn(CCN5CCCC5)c4)cc23)nc(N)n1 [Compound A7, 4-ethyl-6-{5-[1-(2-pyrrolidin-1-ylethyl)-1H-pyrazol-4-yl]-1H-pyrrolo[2,3-b]pyridin-3-yl}pyrimidin-2-ylamine] | 10 to 1000 | 10 to 1000 | 10000 to 20000

The next lines start with the values.

IC50 [1] [nM] | IC50 [2] [nM] | IC50 [3] [nM] | SMILES
10 to 1000 | 1000 to 10000 | 1000 to 10000 | CCc1cc(-c2c[nH]c3ncc(-c4cnn(CCN5CCOCC5)c4)cc23)nc(N)n1 [Compound A8, 4-ethyl-6-{5-[1-(2-morpholin-4-ylethyl)-1H-pyrazol-4-yl]-1H-pyrrolo[2,3-b]pyridin-3-yl}pyrimidin-2-ylamine]
10 to 1000 | 10 to 1000 | 10 to 1000 | CC(C)n1cc(-c2cnc3[nH]cc(-c4cc([C@@](C)(O)c5ccccc5)nc(N)n4)c3c2)cn1 [Compound A124, (S)-1-{2-Amino-6-[5-(1-isopropyl-1H-pyrazol-4-yl)-1H-pyrrolo[2,3-b]pyridin-3-yl]pyrimidin-4-yl}-1-phenylethanol]
10 to 1000 | 10 to 1000 | 10 to 1000 | CCC(O)(c1ccccc1)c1cc(-c2c[nH]c3ncc(-c4cnn(C(C)C)c4)cc23)nc(N)n1 (stereo not drawn) [Compound A59, 1-{2-amino-6-[5-(1-isopropyl-1H-pyrazol-4-yl)-1H-pyrrolo[2,3-b]pyridin-3-yl]pyrimidin-4-yl}-1-phenylpropan-1-ol]
10 to 1000 | 1000 to 10000 | 1000 to 10000 | CC(C)C(O)c1cc(-c2c[nH]c3ncc(-c4cnn(C(C)C)c4)cc23)nc(N)n1 (stereo not drawn) [Compound A102, 1-{2-Amino-6-[5-(1-isopropyl-1H-pyrazol-4-yl)-1H-pyrrolo[2,3-b]pyridin-3-yl]-pyrimidin-4-yl}-2-methylpropan-1-ol]
10 to 1000 | 10 to 1000 | 10 to 1000 | CC(C)n1cc(-c2cnc3[nH]cc(-c4cc(C(C)(O)c5ccccc5)nc(N)n4)c3c2)cn1 (stereo not drawn) [Compound A55, 1-{2-Amino-6-[5-(1-isopropyl-1H-pyrazol-4-yl)-1H-pyrrolo[2,3-b]pyridin-3-yl]-pyrimidin-4-yl}-1-phenylethanol]
10 to 1000 | 10 to 1000 | 1000 to 10000 | CCC[C@H](O)c1cc(-c2c[nH]c3ncc(-c4cnn(C(C)C)c4)cc23)nc(N)n1 [Compound A90, (S)-1-{2-Amino-6-[5-(1-isopropyl-1H-pyrazol-4-yl)-1H-pyrrolo[2,3-b]pyridin-3-yl]pyrimidin-4-yl}butan-1-ol]
10 to 1000 | 10 to 1000 | 10 to 1000 | CC(C)n1cc(-c2cnc3[nH]cc(-c4cc([C@](C)(O)c5ccccc5)nc(N)n4)c3c2)cn1 [Compound A123, (R)-1-{2-Amino-6-[5-(1-isopropyl-1H-pyrazol-4-yl)-1H-pyrrolo[2,3-b]pyridin-3-yl]pyrimidin-4-yl}-1-phenylethanol]
10 to 1000 | 10 to 1000 | 10 to 1000 | CCC[C@@H](O)c1cc(-c2c[nH]c3ncc(-c4cnn(C(C)C)c4)cc23)nc(N)n1 [Compound A91, (R)-1-{2-Amino-6-[5-(1-isopropyl-1H-pyrazol-4-yl)-1H-pyrrolo[2,3-b]pyridin-3-yl]pyrimidin-4-yl}butan-1-ol]
